Results taken from patent US7521528B2, “Conformationally constrained parathyroid hormone (PTH) analogs with lactam bridges” (The General Hospital Corporation, priority 2003, dated 2009).
“Also recorded” adds a separate entry of the source. Positions of bridges follow the written chain, without caps; N, C: chain ends. Non-standard residues stand in square brackets, D forms with d. Residues, ends and D or L forms follow the SMILES beside them. hArg = N=C(N)NCCCC[C@H](N)C(=O)O; Aib = CC(C)(N)C(=O)O

Assays:
[1] = target: T1, recombinant full-length P1R (Homo sapiens, UniProt Q03431); experiment: cAMP stimulation in HKRK-B28 cells; type: cell-based; settings: for Emax: percent of maximum response of PTH(1-14), Table 3; for capacity to stimulate cAMP formation at a single dose: 10 μM
T1 construct: expressed in transfected cells
T1 sequence (Q03431 27-593): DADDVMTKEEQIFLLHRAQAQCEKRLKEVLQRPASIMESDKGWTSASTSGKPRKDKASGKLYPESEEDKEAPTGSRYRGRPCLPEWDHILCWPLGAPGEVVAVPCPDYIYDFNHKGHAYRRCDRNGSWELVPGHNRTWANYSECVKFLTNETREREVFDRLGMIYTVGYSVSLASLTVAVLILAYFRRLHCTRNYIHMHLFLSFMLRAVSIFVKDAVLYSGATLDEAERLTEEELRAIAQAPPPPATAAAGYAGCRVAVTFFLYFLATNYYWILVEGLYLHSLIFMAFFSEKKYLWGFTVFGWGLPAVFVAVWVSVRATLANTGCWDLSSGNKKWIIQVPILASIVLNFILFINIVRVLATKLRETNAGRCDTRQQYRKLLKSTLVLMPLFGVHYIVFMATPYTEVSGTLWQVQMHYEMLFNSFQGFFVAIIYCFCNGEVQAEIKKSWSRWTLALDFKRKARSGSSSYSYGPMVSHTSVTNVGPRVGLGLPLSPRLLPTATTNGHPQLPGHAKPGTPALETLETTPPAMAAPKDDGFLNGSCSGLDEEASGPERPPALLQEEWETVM
Experimental: Cell Culture. The cell line HKRK-B28 (Takasu, H., et al., J. Bone Miner. Res. 14:11-20 (1999)) was derived from the porcine kidney cell line, LLC-PK1 by stable transfection with plasmid DNA encoding the full-length P1R and expresses ˜280,000 receptors per cell. These cells, as well as COS-7 cells and SaOS-2-B10 cells, were cultured at […] in T-75 flasks ([…]) in Dulbecco's modified Eagle's medium (DMEM) supplemented with fetal bovine serum (10%), penicillin G (20 units/ml), streptomycin sulfate (20 μg/ml) and amphotericin B (0.05 μg/ml) in a humidified atmosphere containing 5% CO2. Stock solutions of EGTA/trypsin and antibiotics were from GIBCO; fetal bovine serum was from Hyclone Laboratories (Logan, Utah). COS-7 cells sub-cultured in 24-well plates were transfected with plasmid DNA (200 ng per well) encoding the wild-type human P1R or truncated human P1R deleted for residues (24-181) (Shimizu, M., et al., J. Biol. Chem. 275:21836-21843 (2000)) that was purified by cesium chloride/ethidium bromide density gradient centrifugation, and FuGENE 6 transfection reagent (Roche Indianapolis Ind.) according to the manufacturer's recommended procedure. All cells, in 24-well plates, were treated with fresh media and shifted to 33° C. for 12 to 24 h prior to assay.
(§1) cAMP Stimulation. Stimulation of cells with peptide analogs was performed in 24-well plates. Cells were rinsed with 0.5 mL of binding buffer (50 mM Tris-HCl, 100 mM NaCl, 5 mM KCl, 2 mM CaCl2, 5% heat-inactivated horse serum, 0.5% fetal bovine serum, adjusted to pH 7.5 with HCl) and treated with 200 μL of cAMP assay buffer (Delbecco's modified Eagle's medium containing 2 mM 3-isobutyl-1-methylxanthine, 1 mg/mL bovine serum albumin, 35 mM Hepes-NaOH, pH 7.4) and 100 μL of binding buffer containing varying amounts of peptide analog (final volume=300 μL). The medium was removed after incubation for 30 to 60 minutes at room temperature, and the cells were frozen on dry ice, lysed with 0.5 mL 50 mM HCl, and refrozen ([…]). The cAMP content of the diluted lysate was determined by radioimmunoassay. The EC50 response values were calculated using nonlinear regression (see below).
(§2) Data Calculation. Calculations were performed using Microsoft® Excel. Nonlinear regression analyses of binding and cAMP dose-response data were performed using the four-parameter equation: yp=Min+[(Max−Min)/(1+(IC50/x)^slope)]. The Excel Solver function was utilized for parameter optimization, as described previously (Carter, P. H., et al., Endocrinology 140: 4972-4981 (1999); Bowen, W. P., and Jerman, J. C., Trends in Pharmacol. Sci. 16: 413-417 (1995)). Differences between paired data sets were statistically evaluated using a one-tailed Student's t-test, assuming unequal variances for the two sets.
The effects of installing a direct covalent linkage between the side chains of the residues at positions 6 and 10 on PTH analog function were also assessed. To do this, paired Glu^6/Lys^10 or Lys^6/Glu^10 substitutions were introduced into an otherwise non-constrained PTH(1-14) analog scaffold AlaValAlaGluIleGln LeuMetHisGlnHarAlaLysTrp-amide (SEQ. ID. NO. 11) and formed an amide bond between the carboxylate side chain group of the introduced glutamate residue and the amino side chain group of the introduced lysine residue. For controls, a portion of each Glu/Lys- or Lys/Glu-substituted PTH(1-14) analog was preserved in the non-bridged form. The four peptides: [Glu^6, Lys^10]PTH(1-14)(linear)(SEQ. ID. NO. 24), [(Glu^6,Lys^10)lac.]PTH(1-14) cyclized via a 6-10 lactam bridge)(SEQ. ID. NO. 3), [Lys^6, Glu^10]PTH(1-14)(SEQ. ID. NO. 25), and [(Lys^6, Glu^10)lac.]PTH(1-14)(SEQ. ID. NO. 26) were first compared at a single dose of 10 μM for the capacity to stimulate cAMP formulation in HKRK-B28 cells, an LLC-PK1-derived cell line that expresses the recombinant full-length P1R at a moderate level (˜280,000 receptors per cell). […]

P1R-DelNt = target: T2, P1R-DelNt (Homo sapiens, UniProt Q03431); experiment: cAMP stimulation in LdelNt-2 cells; type: cell-based; settings: for EC50: cAMP accumulation; for Emax: percent of maximum response of PTH(1-14)
T2 construct: expressed in transfected cells
T2 sequence (Q03431 with tags, fused parts or gaps limits assumed): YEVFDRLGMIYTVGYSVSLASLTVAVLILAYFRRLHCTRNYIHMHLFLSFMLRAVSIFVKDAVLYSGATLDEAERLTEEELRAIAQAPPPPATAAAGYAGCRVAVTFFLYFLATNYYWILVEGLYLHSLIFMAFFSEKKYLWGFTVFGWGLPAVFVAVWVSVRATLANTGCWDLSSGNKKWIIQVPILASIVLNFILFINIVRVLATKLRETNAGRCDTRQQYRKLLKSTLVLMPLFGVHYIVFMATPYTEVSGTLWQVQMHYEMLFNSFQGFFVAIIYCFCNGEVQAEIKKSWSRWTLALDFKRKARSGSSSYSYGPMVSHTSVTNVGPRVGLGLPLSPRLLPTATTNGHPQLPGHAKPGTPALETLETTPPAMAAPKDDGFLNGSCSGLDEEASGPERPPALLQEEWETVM
Experimental: as §1, §2
The two-domain hypothesis of the PTH-P1R interaction mechanism predicts that the effects of the substitutions at positions 6 and 10 observed with the above PTH(1-11) analogs involve interactions (direct or indirect) that occur within the juxtamembrane region of the receptor. To test this hypothesis, P1R-DelNt was utilized. P1R-DeNt is a P1R construct that is deleted for most of the N domain yet which retains nearly full capacity to be expressed on the cell surface and to stimulate cAMP formation in response to N-terminal PTH analogs, and an LLC-PK1-derived cell line was herein established, LdelNt-2, which stably expresses P1R-DelNt.

| Structure (SMILES) | Emax [1] [%] | EC50 (P1R-DelNt) [nM] | Emax (P1R-DelNt) [%] | other results |
| --- | --- | --- | --- | --- |
| CC[C@H](C)[C@H](NC(=O)[C@H](CCC(=O)O)NC(=O)[C@H](C)NC(=O)[C@@H](NC(=O)[C@H](C)N)C(C)C)C(=O)N[C@@H](CCC(N)=O)C(=O)N[C@@H](CC(C)C)C(=O)N[C@@H](CCSC)C(=O)N[C@@H](Cc1c[nH]cn1)C(=O)N[C@@H](CCC(N)=O)C(=O)N[C@@H](CCCCNC(=N)N)C(=O)N[C@@H](C)C(=O)N[C@@H](CCCCN)C(=O)N[C@@H](Cc1c[nH]c2ccccc12)C(N)=O [PTH(1-14) (SEQ. ID. NO. 11), [Ala^1,3,12,Gln^10,Har^11,Trp^14]PTH(1-14)amide] (H-AVAEIQLMHQ[hArg]AKW-NH2) | 100 ± 2 |  |  | maximum cAMP response observed ([1]; n=3): 359±52 picomoles of cAMP per well |
| CC[C@H](C)[C@H](NC(=O)[C@H](CCC(=O)O)NC(=O)[C@H](C)NC(=O)[C@@H](NC(=O)[C@H](C)N)C(C)C)C(=O)N[C@H]1CCC(=O)NCCCC[C@@H](C(=O)N[C@@H](CCCCNC(=N)N)C(=O)N[C@@H](C)C(=O)N[C@@H](CCCCN)C(=O)N[C@@H](Cc2c[nH]c3ccccc23)C(N)=O)NC(=O)[C@H](Cc2c[nH]cn2)NC(=O)[C@H](CCSC)NC(=O)[C@H](CC(C)C)NC1=O [[(Glu^6, Lys^10)lac.]PTH(1-14), AlaValAlaGluIleGluLeuMetHisLysHarAlaLysTrp cyclized via a 6-10 lactam bridge] (H-AVAEIELMHK[hArg]AKW-NH2; lactam 6-10) | 52 ± 3 |  |  | capacity to stimulate cAMP formation at a single dose [1]: comparable to that of its linear counterpart |
| CC[C@H](C)[C@H](NC(=O)[C@H](CCC(=O)O)NC(=O)[C@H](C)NC(=O)[C@@H](NC(=O)[C@H](C)N)C(C)C)C(=O)N[C@H]1CCCCNC(=O)CC[C@@H](C(=O)N[C@@H](CCCCNC(=N)N)C(=O)N[C@@H](C)C(=O)N[C@@H](CCCCN)C(=O)N[C@@H](Cc2c[nH]c3ccccc23)C(N)=O)NC(=O)[C@H](Cc2c[nH]cn2)NC(=O)[C@H](CCSC)NC(=O)[C@H](CC(C)C)NC1=O [[(Lys^6, Glu^10)lac.]PTH(1-14)] (H-AVAEIKLMHE[hArg]AKW-NH2; lactam 6-10) | 59 ± 3 |  |  | capacity to stimulate cAMP formation at a single dose [1]: more active than its linear counterpart; also recorded: significantly (P<0.0001) greater than that elicited by the linear control; potency relative to linear [Lys^6, Glu^10]PTH(1-14) ([1]; dose-response analyses): six-fold more potent |
| CC[C@H](C)[C@H](NC(=O)[C@H](CCC(=O)O)NC(=O)[C@H](C)NC(=O)[C@@H](NC(=O)[C@H](C)N)C(C)C)C(=O)N[C@@H](CCC(=O)O)C(=O)N[C@@H](CC(C)C)C(=O)N[C@@H](CCSC)C(=O)N[C@@H](Cc1c[nH]cn1)C(=O)N[C@@H](CCCCN)C(=O)N[C@@H](CCCCNC(=N)N)C(=O)N[C@@H](C)C(=O)N[C@@H](CCCCN)C(=O)N[C@@H](Cc1c[nH]c2ccccc12)C(N)=O [[Glu^6, Lys^10]PTH(1-14)] (H-AVAEIELMHK[hArg]AKW-NH2) | 52 ± 3 |  |  |  |

The next lines start with results.

| Emax [1] [%] | EC50 (P1R-DelNt) [nM] | Emax (P1R-DelNt) [%] | Structure (SMILES) | other results |
| --- | --- | --- | --- | --- |
|  | 6.6 ± 1.1 |  | CC[C@H](C)[C@H](NC(=O)[C@H](CCC(=O)O)NC(=O)C(C)(C)NC(=O)[C@@H](NC(=O)C(C)(C)N)C(C)C)C(=O)N[C@@H](CCC(N)=O)C(=O)N[C@@H](CC(C)C)C(=O)N[C@@H](CCSC)C(=O)N[C@@H](Cc1c[nH]cn1)C(=O)N[C@@H](CCC(N)=O)C(=O)N[C@@H](CCCCNC(=N)N)C(=O)N[C@@H](C)C(=O)N[C@@H](CCCCN)C(=O)N[C@@H](Cc1c[nH]c2ccccc12)C(N)=O [[Aib]PTH(1-14), AibValAibGluIleGlnLeuMetHisGlnHarAlaLysTrp-amide] (H-[Aib]V[Aib]EIQLMHQ[hArg]AKW-NH2) | fold increase in cAMP formation/accumulation (P1R-DelNt): 50 fold |
|  | 24 ± 7 | 100 ± 3 | CC[C@H](C)[C@H](NC(=O)[C@H](CCC(=O)O)NC(=O)C(C)(C)NC(=O)[C@@H](NC(=O)C(C)(C)N)C(C)C)C(=O)N[C@@H](C)C(=O)N[C@@H](CC(C)C)C(=O)N[C@@H](CCSC)C(=O)N[C@@H](Cc1c[nH]cn1)C(=O)N[C@@H](C)C(=O)N[C@@H](CCCCNC(=N)N)C(=O)N[C@@H](C)C(=O)N[C@@H](CCCCN)C(=O)N[C@@H](Cc1c[nH]c2ccccc12)C(N)=O [[Aib^1,3, Ala^6,10]PTH(1-14)] (H-[Aib]V[Aib]EIALMHA[hArg]AKW-NH2) | potency relative to [Aib^1,3, Ala^6]PTH(1-14) (P1R-DelNt): six-fold higher |
|  |  | 101 ± 4 | CC[C@H](C)[C@H](NC(=O)[C@H](CCC(=O)O)NC(=O)C(C)(C)NC(=O)[C@@H](NC(=O)C(C)(C)N)C(C)C)C(=O)N[C@@H](C)C(=O)N[C@@H](CC(C)C)C(=O)N[C@@H](CCSC)C(=O)N[C@@H](Cc1c[nH]cn1)C(=O)N[C@@H](CCC(N)=O)C(=O)N[C@@H](CCCCNC(=N)N)C(=O)N[C@@H](C)C(=O)N[C@@H](CCCCN)C(=O)N[C@@H](Cc1c[nH]c2ccccc12)C(N)=O [[Aib^1,3, Ala^6]PTH(1-14)] (H-[Aib]V[Aib]EIALMHQ[hArg]AKW-NH2) | potency weaker than parent [Aib]PTH(1-14) (P1R-DelNt): 22 fold |
|  | 81 ± 65 | 104 ± 7 | CC[C@H](C)[C@H](NC(=O)[C@H](CCC(=O)O)NC(=O)C(C)(C)NC(=O)[C@@H](NC(=O)C(C)(C)N)C(C)C)C(=O)N[C@@H](CCC(N)=O)C(=O)N[C@@H](CC(C)C)C(=O)N[C@@H](CCSC)C(=O)N[C@@H](Cc1c[nH]cn1)C(=O)N[C@@H](C)C(=O)N[C@@H](CCCCNC(=N)N)C(=O)N[C@@H](C)C(=O)N[C@@H](CCCCN)C(=O)N[C@@H](Cc1c[nH]c2ccccc12)C(N)=O [[Aib^1,3, Ala^10]PTH(1-14)] (H-[Aib]V[Aib]EIQLMHA[hArg]AKW-NH2) | potency weaker than parent [Aib]PTH(1-14) (P1R-DelNt): 12 fold |
